Each structure is given as a SMILES string.

For one experiment, the system named is Myzus persicae. Description: Myzus persicae test (cabbage leaf dip). The format is in vivo. The source says:
(§1) Formula for the calculation of the kill rate of a combination of two active compounds
(§2) The expected activity for a given combination of two active compounds can be calculated (cf. COLBY, S. R.; “Calculating Synergistic and Antagonistic Responses of Herbicide Combinations”, Weeds 15, pages 20-22, 1967):
(§3) if • X=the kill rate, expressed in % of the untreated control, when employing active compound A at an application rate of m ppm, • Y=the kill rate, expressed in % of the untreated control, when employing active compound B at an application rate of n ppm, • E=the kill rate, expressed in % of the untreated control, when employing active compounds A and B at application rates of m and n ppm, then
(§4) If the actual insecticidal kill rate is higher than the calculated one, the kill rates of the combination are superadditive, i.e. a synergistic effect is present. In this case, the kill rate that is actually observed has to be higher than the value, calculated using the formula above, for the expected kill rate (E).
Solvent: 7 parts by weight of dimethylformamide Emulsifier: 2 parts by weight of alkylaryl polyglycol ether
To produce a suitable preparation of active compound, 1 part by weight of active compound is mixed with the stated amounts of solvent and emulsifier, and the concentrate is diluted with emulsifier-containing water to the desired concentration.
Cabbage leaves (Brassica oleracea) which are heavily infested by the green peach aphid (Myzus persicae) are treated by being dipped into the preparation of active compound of the desired concentration.
After the desired period of time, the kill in % is determined. 100% means that all aphids have been killed; 0% means that none of the aphids have been killed. The determined kill rates are entered into Colby's formula.

Experiment [1] deals with Plutella xylostella (normally sensitive strain). Put plainly: Plutella xylostella test, normally sensitive strain (cabbage leaf dip). As to conditions: 20 ppm. The format is in vivo.
From the text: as §1, §2, §3, §4
To produce a suitable preparation of active compound, 1 part by weight of active compound is mixed with the stated amounts of solvent and emulsifier, and the concentrate is diluted with emulsifier-containing water to the desired concentration. […]
After the desired period of time, the kill in % is determined. […] The determined kill rates are entered into Colby's formula (see sheet 1).

On to `C/C(=N\C#N)N(C)Cc1ccc(Cl)nc1` [acetamiprid], for which the “Kill in % after 6 days” value with Myzus persicae (0.16 ppm) is 30%.

On to `CN/C(=N\[N+](=O)[O-])NCc1cnc(Cl)s1` [clothianidin], for which the “Kill in % after 1 day” value in the experiment with Myzus persicae (0.16 ppm, after 1 day (Table A2)) was determined as 0%.

Regarding `CNC(=O)Oc1cc(C)c(SC)c(C)c1` [methiocarb, 3,5-dimethyl-4-(methylthio)phenyl methylcarbamate], the “Kill in % after 3 days” value in experiment [1] stood at 0%. The “Kill in % after 1 day” value with Myzus persicae (20 ppm, after 1 day (Table A2)) worked out at 5%; with Myzus persicae (20 ppm, after 1 day (Table A3)), 5%. Besides, the “Kill in % after 6 days” value with Myzus persicae (100 ppm) turned out to be 50%.

Consider `N#C/N=C1\SCCN1Cc1ccc(Cl)nc1` [thiacloprid], for which the “Kill in % after 3 days” value in experiment [1] is on record as 0%. For the same compound, the “Kill in % after 1 day” value with Myzus persicae (0.8 ppm, after 1 day (Table A3)) is given as 20%.

Source of the values: patent US20080139388A1, “Synergistic Insecticide Mixtures” (priority 2004, published 2008).
